Assay results: PMC10601989, “Charge and lipophilicity are required for effective block of the hair-cell mechano-electrical transducer channel by FM1-43 and its derivatives” (Frontiers in Cell and Developmental Biology, 2023)

system: T1, hair-cell mechano-electrical transducer (MET) channel (native, mouse cochlear outer hair cells); assay: whole-cell patch clamp of MET currents, fluid-jet bundle stimulation, fractional block; type: cell-based; conditions: -64 mV; extracellular superfusion, 1.3 mM Ca2+, pH 7.48, room temperature; permeant voltage-dependent block
T1 construct: gene Tmc1; native full-length MET complex in outer hair cells of P2 organotypic cochlear cultures kept 1-2 days in vitro; TMC1 and/or TMC2 pore with TMIE (subunits named only in the discussion; copy numbers from the C. elegans cryo-EM structure it cites); with Transmembrane inner ear expressed protein

| SMILES | % block at 10 μM |
| --- | --- |
| CCCCN(CCCC)c1ccc(/C=C/c2cc[n+](CCC[N+](CC)(CC)CC)cc2)cc1 [compound 13550, FM1-43] | ~ 30% |
| CCCCN(CCCC)c1ccc(/C=C/c2cc[n+](CCCC(=O)OCC)cc2)cc1 [compound 13551, 13551] | > 80% |
| CCCCN(CCCC)c1ccc(/C=C/c2cc[n+](CCCCC[N+](CC)(CC)CC)cc2)cc1 [compound 13667, 13667] | > 80% |
| CCCCN(CCCC)c1ccc(/C=C/c2cc[n+](CCCC[N+](CC)(CC)CC)cc2)cc1 [compound 13669, 13669] | > 80% |
